Results: the NIST ThermoML archive (doi:10.1021/je8007217)
Numbers after ± are expanded uncertainties.

Key:
[1] = xn = mol fraction of the nth substance listed; conditions: 298.15 K, 101 kPa, Liquid; for viscosity: Capillary tube (Ostwald / Ubbelohde) method; for mass density: Pycnometric method
[2] = 298.15 K, 101 kPa, Liquid; for viscosity: Capillary tube (Ostwald / Ubbelohde) method; for mass density: Pycnometric method

C1CCCCC1 [cyclohexane] + COC(C)=O
[1], x1 = 1
Conditions	mass density [kg/m3]	viscosity [mPa·s]
–	773.8 ± 0.2	0.892 ± 0.008

CCCOC(C)=O [propyl ethanoate]
[2]
Conditions	mass density [kg/m3]	viscosity [mPa·s]
–	883 ± 0.2	0.551 ± 0.007

COC(C)=O [methyl ethanoate] + O=C1CCCCC1
[1], x2 = 0
Conditions	mass density [kg/m3]	viscosity [mPa·s]
–	926.8 ± 0.2	0.38 ± 0.007

CCOC(C)=O [ethyl acetate] + O=C1CCCCC1
[1], x2 = 0
Conditions	mass density [kg/m3]	viscosity [mPa·s]
–	894.5 ± 0.2	0.426 ± 0.007

O=C1CCCCC1 [cyclohexanone]
[2]
Conditions	mass density [kg/m3]	viscosity [mPa·s]
–	941.6 ± 0.3	2.02 ± 0.013

O=C1CCCCC1 [cyclohexanone] + CCCOC(C)=O
[1]
Conditions	mass density [kg/m3]	viscosity [mPa·s]
x1 = 0.1036	888.2 ± 0.2	0.609 ± 0.007
x1 = 0.2064	894.2 ± 0.2	0.666 ± 0.007
x1 = 0.3084	900.4 ± 0.2	0.731 ± 0.007
x1 = 0.4096	906.5 ± 0.2	0.821 ± 0.008
x1 = 0.5099	912.4 ± 0.2	0.926 ± 0.008
x1 = 0.6095	918.4 ± 0.2	1.049 ± 0.009
x1 = 0.7083	924.3 ± 0.2	1.199 ± 0.009
x1 = 0.8063	930.2 ± 0.2	1.407 ± 0.01
x1 = 0.9035	936.1 ± 0.2	1.685 ± 0.011
x1 = 1	941.6 ± 0.3	2.02 ± 0.013

O=C1CCCCC1 [cyclohexanone] + C1CCCCC1
[1]
Conditions	mass density [kg/m3]	viscosity [mPa·s]
x2 = 0	941.6 ± 0.3	2.02 ± 0.013
x2 = 0.1147	921.8 ± 0.3	1.813 ± 0.012
x2 = 0.2257	903 ± 0.2	1.638 ± 0.011
x2 = 0.3332	884.8 ± 0.2	1.475 ± 0.01
x2 = 0.4374	867.1 ± 0.2	1.335 ± 0.01
x2 = 0.5384	849.6 ± 0.2	1.225 ± 0.009
x2 = 0.6363	832.5 ± 0.2	1.126 ± 0.009
x2 = 0.7313	816 ± 0.2	1.038 ± 0.009
x2 = 0.8235	800 ± 0.2	0.965 ± 0.008
x2 = 0.913	785.9 ± 0.2	0.921 ± 0.008

C1CCCCC1 [cyclohexane] + O=C1CCCCC1
[1], x1 = 1
Conditions	mass density [kg/m3]	viscosity [mPa·s]
–	773.8 ± 0.2	0.892 ± 0.008

COC(C)=O [methyl ethanoate]
[2]
Conditions	mass density [kg/m3]	viscosity [mPa·s]
–	926.8 ± 0.2	0.38 ± 0.007

C1CCCCC1 [cyclohexane] + CCCOC(C)=O
[1], x1 = 1
Conditions	mass density [kg/m3]	viscosity [mPa·s]
–	773.8 ± 0.2	0.892 ± 0.008

O=C1CCCCC1 [cyclohexanone] + CCOC(C)=O
[1]
Conditions	mass density [kg/m3]	viscosity [mPa·s]
x1 = 0.0907	898.3 ± 0.2	0.47 ± 0.007
x1 = 0.1833	902.6 ± 0.2	0.521 ± 0.007
x1 = 0.2778	907.3 ± 0.2	0.585 ± 0.007
x1 = 0.3744	912.3 ± 0.2	0.667 ± 0.007
x1 = 0.473	917.5 ± 0.2	0.764 ± 0.008
x1 = 0.5738	922.6 ± 0.2	0.892 ± 0.008
x1 = 0.6769	927.6 ± 0.2	1.058 ± 0.009
x1 = 0.7822	932.6 ± 0.2	1.289 ± 0.01
x1 = 0.8899	937.3 ± 0.2	1.604 ± 0.011
x1 = 1	941.6 ± 0.3	2.02 ± 0.013

CCCOC(C)=O [propyl ethanoate] + O=C1CCCCC1
[1], x2 = 0
Conditions	mass density [kg/m3]	viscosity [mPa·s]
–	883 ± 0.2	0.551 ± 0.007
